Experimental findings from patent US20170360947A1, “POLYMER PARTICLES AND BIOMATERIALS COMPRISING THE SAME” (UNIVERSITE DE BORDEAUX, priority 2014, published 2017) are described below.

For test [1], the system named is MRSA strain obtained from blood cultures. Description: Gentamicin susceptibility of the MRSA strain studied in vivo. It counts as cell-based, S. aureus. The procedure:
Strain studied: an MRSA strain obtained from blood cultures (gentamicin MIC<0.5 μg/mL). Assessment of the animal model was realized with 10^3 CFU/mL inoculum.

A further test concerns MRSA BCB8. As to the kind of experiment: MIC determination in Mueller-Hinton broth (absorbance at 600 nm). It counts as cell-based, S. aureus. As for the experimental part:
From a 24 h bacterial culture, MRSA BCB8 were suspended in Mueller-Hinton broth to obtain a 0.5 McF suspension, which was diluted to a final concentration of 1.10^6 CFU·ml^−1.
Then twofold serial dilutions of chemicals were prepared (from 256 μg·ml^−1 to 0.06 μg·ml^−1) and 100 μl of MRSA BCB8 suspension were incubated with 200 μl of chemical containing solutions for 24 h at 37° C.
After this time, suspension absorbances were measured at 600 nm. MICs were determined as the minimal concentration for which the lowest absorbance is observed.

Converted amounts (≈) assume the structure as drawn.

As to gentamicin, the “gentamicin MIC” value in test [1] was under 0.5 µg/mL.
By MIC is commonly meant the smallest concentration in the dilution series that meets the test's criterion for growth inhibition. Read a high MIC as a less susceptible organism. `CN[C@H](CC(C)C)C(=O)N[C@H]1C(=O)N[C@@H](CC(N)=O)C(=O)N[C@H]2C(=O)N[C@H]3C(=O)N[C@H](C(=O)N[C@H](C(=O)O)c4cc(O)cc(O)c4-c4cc3ccc4O)[C@H](O)c3ccc(c(Cl)c3)Oc3cc2cc(c3O[C@@H]2O[C@H](CO)[C@@H](O)[C@H](O)[C@H]2O[C@H]2C[C@](C)(N)[C@H](O)[C@H](C)O2)Oc2ccc(cc2Cl)[C@H]1O` [Vancomycin] showed an MIC against MRSA BCB8 (Staphylococcus aureus, MRSA, 24 h) of 0.6 µg/mL (≈ 0.414 µM).
In turn, “α-Norbornenyl-ω-Vancomycin Poly(Ethylene Oxide) [macro Vanco]” displayed an MIC against MRSA BCB8 (MRSA BCB8, 24 h at 37° C., lowest absorbance at 600 nm) of 1.3 µg/mL.
